# In DBAASP:
# Several values for one entry are separate records, joined by “and”; a condition that tells them apart may be missing. Equal entries are not always repeated.
# Key:
# Assay in all cases: ≥ marks a high value that may be exact or a test limit, other limits are often not marked, values filed in µg/mL are converted to µM
# [1] = system: Staphylococcus aureus ATCC 25923
# [2] = system: Escherichia coli ATCC 25922
# [3] = system: Staphylococcus epidermidis KCTC 1917
# [4] = system: Pseudomonas aeruginosa ATCC 15692
# [5] = system: Salmonella typhimurium KCTC 1926
# [6] = system: Listeria monocytogenes KCTC 19111
# Escherichia coli MG1655 = system: Escherichia coli MG1655
# Bacillus subtilis 168 HT = system: Bacillus subtilis 168 HT
# [7] = system: Cronobacter muytjensii ATCC 51329
# [8] = system: Staphylococcus aureus RN4220
# [9] = system: Staphylococcus aureus RF122
# [10] = system: Cronobacter sakazakii DSM 4485
# [11] = system: Staphylococcus aureus NCTC 8325-4
# [12] = system: Cronobacter sakazakii ATCC BAA-894
# [13] = system: Cronobacter sakazakii DPC 6440
# [14] = system: Staphylococcus aureus Newman
# [15] = system: Salmonella enterica subsp. enterica serovar Typhimurium LT2
# [16] = system: Escherichia coli NCIMB 11843
# [17] = system: Klebsiella pneumoniae NCIMB 13218
# [18] = system: Pseudomonas fluorescens NCIMB 9046
# [19] = system: Staphylococcus aureus SA113
# [20] = system: Salmonella enterica subsp. enterica serovar Typhimurium ATCC 14028
# Bacillus megaterium Bm11 = system: Bacillus megaterium Bm11
# [21] = system: Staphylococcus aureus 710A
# Escherichia coli ML-35 = system: Escherichia coli ML-35
# [22] = system: Pseudomonas aeruginosa ATCC 27853
# [23] = system: Pseudomonas aeruginosa H547
# [24] = system: Salmonella enterica subsp. enterica serovar Typhimurium ATCC 14028s
# [25] = system: Pseudomonas aeruginosa H374
# [26] = system: Pseudomonas aeruginosa Z61
# [27] = system: Pseudomonas aeruginosa K799
# Escherichia coli UB1005 = system: Escherichia coli UB1005
# [28] = system: Pseudomonas aeruginosa H744
# Escherichia coli 078 = system: Escherichia coli 078
# Escherichia coli K99 = system: Escherichia coli K99
# [29] = system: Salmonella enterica subsp. enterica serovar Typhimurium C77-31
# [30] = system: Lacticaseibacillus rhamnosus 7469
# Escherichia coli 987P = system: Escherichia coli 987P
# [31] = system: Staphylococcus epidermidis ATCC 12228
# [32] = system: Candida parapsilosis CGMCC 2.3989
# [33] = system: Lactiplantibacillus plantarum 8014
# [34] = system: Pseudomonas aeruginosa PAO1
# [35] = system: Candida tropicalis CGMCC 2.1975
# [36] = system: Staphylococcus aureus ATCC 29213
# Escherichia coli K88 = system: Escherichia coli K88
# [37] = system: Candida albicans CGMCC 2.2086
compound,measurement,setting,value
CC(C)[C@H](NC(=O)[C@H](Cc1c[nH]c2ccccc12)NC(=O)[C@H](CCCCN)NC(=O)[C@H](CCCCN)NC(=O)[C@@H](NC(=O)[C@H](Cc1c[nH]c2ccccc12)NC(=O)[C@H](CCCCN)NC(=O)[C@H](CCCCN)NC(=O)[C@@H](NC(=O)[C@H](Cc1c[nH]c2ccccc12)NC(=O)[C@@H](N)CCCCN)C(C)C)C(C)C)C(=O)N[C@@H](CCCCN)C(N)=O [KWVKKWVKKWVK],MIC,[1],16 µM
same,MIC,[2],1 µM
same,MIC,[3],4 µM
same,MIC,[4],4 µM
same,MIC,[5],2 µM
same,MIC,[6],4 µM
CC[C@H](C)[C@H](NC(=O)[C@@H](N)CC(C)C)C(=O)N[C@H](C(=O)N[C@@H](CC(C)C)C(=O)N[C@H](C(=O)N[C@@H](CS)C(=O)N[C@@H](CCCN=C(N)N)C(=O)N[C@@H](CCCCN)C(=O)N[C@@H](CCCCN)C(=O)N[C@@H](CCCCN)C(=O)N[C@@H](CCCCN)C(=O)N1CCC[C@H]1C(=O)N[C@@H](Cc1ccccc1)C(=O)O)[C@@H](C)O)C(C)C [LIVLTCRKKKKPF],MIC,Escherichia coli MG1655,≥ 81 µM
same,MIC,Bacillus subtilis 168 HT,≥ 40.7 µM
CC[C@H](C)[C@H](NC(=O)CNC(=O)[C@H](C)NC(=O)[C@H](Cc1cnc[nH]1)NC(=O)[C@@H](NC(=O)[C@H](CCCCN)NC(=O)[C@H](Cc1ccc(O)cc1)NC(=O)[C@@H]1CCCN1C(=O)[C@@H](NC(=O)[C@H](CC(C)C)NC(=O)[C@H](CCCCN)NC(=O)[C@H](CCCCN)NC(=O)[C@@H](N)Cc1c[nH]c2ccccc12)C(C)C)[C@@H](C)CC)C(=O)O [WKKLVPYKIHAGI],MIC,Escherichia coli MG1655,≥ 82 µM
same,MIC,Bacillus subtilis 168 HT,≥ 82 µM
CC[C@H](C)[C@H](N)C(=O)N[C@@H](C)C(=O)N[C@@H](Cc1cnc[nH]1)C(=O)N[C@@H](CCC(N)=O)C(=O)NCC(=O)N[C@@H](CC(C)C)C(=O)N1CCC[C@H]1C(=O)N[C@@H](CCC(N)=O)C(=O)N[C@@H](CCC(=O)O)C(=O)O [IAHQGLPQE],MIC,[7],≥ 2500 µM
same,MIC,[8],≥ 1250 µM
same,MIC,[9],≥ 1250 µM
same,MIC,[10],≥ 2500 µM
same,MIC,[11],≥ 1250 µM
same,MIC,[12],≥ 2500 µM
same,MIC,[13],≥ 312 µM
same,MIC,[14],≥ 1250 µM
same,MIC,[15],≥ 1250 µM
same,MIC,[16],≥ 1250 µM
same,MIC,[17],≥ 1250 µM
same,MIC,[18],≥ 1250 µM
same,MIC,[19],≥ 1250 µM
CC[C@H](C)[C@H](NC(=O)[C@H](CCCCN)NC(=O)[C@H](CCCCN)NC(=O)[C@H](CC(C)C)NC(=O)[C@H](CC(C)C)NC(=O)CN)C(=O)NCC(=O)N[C@@H](CCCCN)C(=O)N[C@@H](CCCCN)C(=O)N[C@@H](C)C(=O)N[C@@H](CCCCN)C(=O)N[C@@H](CCCCN)C(=O)N[C@@H](C)C(=O)N[C@@H](CC(C)C)C(=O)N[C@@H](CCCCN)C(=O)N[C@@H](CCCCN)C(=O)N[C@@H](CC(C)C)C(=O)NCC(=O)N[C@@H](Cc1ccc(O)cc1)C(N)=O [GLLKKIGKKAKKALKKLGY],MIC,[20],2 µM
same,MIC,Bacillus megaterium Bm11,2 µM
same,MIC,[21],2 µM
same,MIC,Escherichia coli ML-35,0.5 µM
same,MIC,[22],0.5 µM
CC(C)[C@H](NC(=O)[C@H](CO)NC(=O)[C@H](CC(N)=O)NC(=O)[C@H](CC(=O)O)NC(=O)[C@H](Cc1ccccc1)NC(=O)[C@H](CO)NC(=O)CNC(=O)[C@@H](NC(=O)[C@H](CCC(N)=O)NC(=O)[C@H](CCCCN)NC(=O)[C@H](Cc1ccccc1)NC(=O)[C@H](Cc1ccccc1)NC(=O)[C@H](CO)NC(=O)[C@H](CCCCN)NC(=O)[C@H](CCCN=C(N)N)NC(=O)[C@H](Cc1c[nH]c2ccccc12)NC(=O)[C@H](CCCCN)NC(=O)[C@@H](N)CCCCN)C(C)C)C(=O)O [KKWRKSFFKQVGSFDNSV],MIC,[23],29.2 µM
same,MIC,[24],29.2 µM
same,MIC,[25],29.2 µM
same,MIC,[26],29.2 µM
same,MIC,[27],29.2 µM
same,MIC,Escherichia coli UB1005,29.2 µM
same,MIC,[28],29.2 µM
CC[C@H](C)[C@H](N)C(=O)N[C@@H](Cc1cnc[nH]1)C(=O)N[C@@H](Cc1cnc[nH]1)C(=O)N[C@H](C(=O)N[C@@H](Cc1cnc[nH]1)C(=O)N[C@@H](Cc1cnc[nH]1)C(=O)N[C@@H](Cc1cnc[nH]1)C(=O)N[C@H](C(=O)N[C@@H](Cc1cnc[nH]1)C(=O)N[C@@H](Cc1cnc[nH]1)C(=O)N[C@H](C(=O)N[C@@H](Cc1cnc[nH]1)C(=O)N[C@@H](Cc1cnc[nH]1)C(=O)N[C@@H](Cc1cnc[nH]1)C(N)=O)[C@@H](C)CC)[C@@H](C)CC)[C@@H](C)CC [IHHIHHHIHHIHHH],MIC,Escherichia coli 078,≥ 64 µM
same,MIC,Escherichia coli K99,≥ 64 µM
same,MIC,[29],≥ 64 µM
same,MIC,[20],> 64 µM
same,MIC,[30],≥ 64 µM
same,MIC,Escherichia coli 987P,≥ 64 µM
same,MIC,[31],> 64 µM
same,MIC,[32],2 µM
same,MIC,[33],≥ 64 µM
same,MIC,[34],64 µM
same,MIC,[35],1 µM
same,MIC,[1],> 64 µM
same,MIC,[36],> 64 µM
same,MIC,Escherichia coli K88,≥ 64 µM
same,MIC,[37],16 µM
same,MIC,Escherichia coli UB1005,≥ 64 µM
same,MIC,[2],64 µM and > 32 µM
CC[C@H](C)[C@H](NC(=O)[C@H](CCCCN)NC(=O)[C@H](CCCCN)NC(=O)[C@H](CC(C)C)NC(=O)[C@H](CC(C)C)NC(=O)CN)C(=O)N[C@@H](C)C(=O)N[C@@H](CCCCN)C(=O)N[C@@H](CCCCN)C(=O)N[C@@H](C)C(=O)N[C@@H](CCCCN)C(=O)N[C@@H](CCCCN)C(=O)N[C@@H](C)C(=O)NCC(=O)N[C@@H](CCCCN)C(=O)N[C@@H](CCCCN)C(=O)N[C@@H](CC(C)C)C(=O)NCC(=O)N[C@@H](Cc1ccc(O)cc1)C(N)=O [GLLKKIAKKAKKAGKKLGY],MIC,[20],> 32 µM
same,MIC,Bacillus megaterium Bm11,≥ 32 µM
same,MIC,[21],≥ 32 µM
same,MIC,Escherichia coli ML-35,4 µM
same,MIC,[22],8 µM
